From ChEMBL document CHEMBL1126714, “Structure, DNA minor groove binding, and base pair specificity of alkyl- and aryl-linked bis(amidinobenzimidazoles) and bis(amidinoindoles)” (J Med Chem, 1993)

What was measured:
Format in all cases: nucleic-acid assay
[1] = system: Nucleic Acid; assay: Thermal denaturation in alternating poly(dA-dT)poly(dA-dT) homopolymer (AT)
[2] = system: Nucleic Acid; assay: Thermal denaturation in sonicated poly(dA)-poly(dT) homopolymer (AT)
[3] = system: Calf thymus DNA; assay: Thermal denaturation in sonicated calf thymus DNA (CT DNA); conditions: Bos taurus
[4] = system: Nucleic Acid; assay: Ratio between poly-dAdT and poly-dGdC binding
[5] = system: Nucleic Acid; assay: Thermal denaturation in alternating poly(dG-dC)-poly(dG-dC) homopolymer (GC)

Compound	Tm [1] [°C]	Tm [2] [°C]	Tm [3] [°C]	Ratio [4]	Tm [5] [°C]
Cc1cc(-c2nc3cc(C(=N)N)ccc3[nH]2)c(C)cc1-c1nc2cc(C(=N)N)ccc2[nH]1	26.5	29	15.6	7	3.7
N=C(N)c1ccc2c(ccn2CCCn2ccc3cc(C(=N)N)ccc32)c1	20.3	19.2	13.7	3.1	6.5
O=[N+]([O-])c1ccc2[nH]c(CCc3nc4cc([N+](=O)[O-])ccc4[nH]3)nc2c1	0.2	0.5	1.5		2.6
c1ccc2[nH]c(CCc3nc4ccccc4[nH]3)nc2c1	0.1	2.1	4.3		1
N=C(N)c1ccc2[nH]c(/C=C/c3nc4cc(C(=N)N)ccc4[nH]3)nc2c1	42.4	46.1	21.8	7	5.8
CN1CCN(c2ccc3[nH]c(-c4ccc5[nH]c(-c6ccc(O)cc6)nc5c4)nc3c2)CC1	24.1	32.4	14.1	10	2.5
C1=NCCCN1Cc1ccc2[nH]c(CCc3nc4cc(CN5C=NCCC5)ccc4[nH]3)nc2c1	28.9	30.7	13.3	18	1.6
c1cc2[nH]c(CCc3nc4cc(C5=NCCCN5)ccc4[nH]3)nc2cc1C1=NCCCN1	39.5	45.1	19.7	15	2.7
Cn1cc(NC(=O)c2cc(NC(=O)CNC(=N)N)cn2C)cc1C(=O)NCCC(=N)N	35.1	46.6	19	32	1.1
N=C(N)c1ccc2[nH]c(-c3ccc(-c4nc5cc(C(=N)N)ccc5[nH]4)cc3)nc2c1	21.7	27.5	13.3	7	3.1
N=C(N)c1ccc2c(ccn2Cc2ccc(Cn3ccc4cc(C(=N)N)ccc43)cc2)c1	11.9	10.8	9.3	2.2	5.4
N=C(N)c1ccc2[nH]c(CCCCCc3nc4cc(C(=N)N)ccc4[nH]3)nc2c1	18.3	24.7	10.1	5	3.3
CC[n+]1c(-c2ccccc2)c2cc(N)ccc2c2ccc(N)cc21	16.8	9.9	12.4	3	5.3
N=C(N)c1ccc2nc(Cc3nc4ccc(C(=N)N)cc4[nH]3)[nH]c2c1	11.5	9.2	7.6	3	3.5
N=C(N)c1ccc2c(ccn2CCCCCCn2ccc3cc(C(=N)N)ccc32)c1	13.4	17.7	10.5	2.3	5.9
N=C(N)c1ccc2c(ccn2CCCCCn2ccc3cc(C(=N)N)ccc32)c1	12.9	15.3	10.2	2.6	5
N=C(N)c1ccc2[nH]c(CCc3nc4cc(C(=N)N)ccc4[nH]3)nc2c1	37.2	42.4	18.5	4	4
c1cc2[nH]c(CCCCc3nc4cc(C5=NCCN5)ccc4[nH]3)nc2cc1C1=NCCN1	28.9	34.5	15.3	6	4.6
CC(C)NC(=N)c1ccc2[nH]c(/C=C/c3nc4cc(C(=N)NC(C)C)ccc4[nH]3)nc2c1	22.5	31.6	22.8	5	5.5
CC(C)NC(=N)c1ccc2[nH]c(-c3ccc(-c4nc5cc(C(=N)NC(C)C)ccc5[nH]4)cc3)nc2c1	45	44.3	22.3	8	5.6

Compound	Tm [1] [°C]	Tm [2] [°C]	Tm [3] [°C]	Ratio [4]	Tm [5] [°C]
c1cc2[nH]c(CCc3nc4cc(C5=NCCN5)ccc4[nH]3)nc2cc1C1=NCCN1	34.6	40	18.5		3
N=C(N)c1ccc2c(ccn2Cc2cccc(Cn3ccc4cc(C(=N)N)ccc43)c2)c1	9.2	8.1	8.1	2.3	4
Nc1ccc2nc(CCc3nc4ccc(N)cc4[nH]3)[nH]c2c1	0.6	3	1.6		2.6
CNc1ccc2[nH]c(CCc3nc4cc(NC)ccc4[nH]3)nc2c1	14.1	34.2	12.8	4	3.9
N=C(N)c1ccc(OCCCCCOc2ccc(C(=N)N)cc2)cc1	20.2	22.9	10.7	6	3.2
N=C(N)c1ccc2[nH]c(CCCc3nc4cc(C(=N)N)ccc4[nH]3)nc2c1	20.1	30.6	10.6	6	3.3
N=C(N)c1ccc(-c2cc3ccc(C(=N)N)cc3[nH]2)cc1	40.5	38.8	21.5	6	6.9
c1cc2[nH]c(CCc3nc4cc(N5CCOCC5)ccc4[nH]3)nc2cc1N1CCOCC1	0.8	0.9	0.6		-0.3
OC/C=N\c1ccc2[nH]c(CCc3nc4cc(/N=C/CO)ccc4[nH]3)nc2c1	1.4	4.5	2	3	0.7
N=C(N)c1ccc2[nH]c(CCCCCCc3nc4cc(C(=N)N)ccc4[nH]3)nc2c1	28	34	13.5	8	3.5
N=C(N)c1ccc2[nH]c(CCCCc3nc4cc(C(=N)N)ccc4[nH]3)nc2c1	31.3	33.5	15.9	9	3.3
C/C(=C(/C)c1nc2cc(C(=N)N)ccc2[nH]1)c1nc2cc(C(=N)N)ccc2[nH]1	15.6	17.3	14.1	3	4.6
c1cc2[nH]c(CCCc3nc4cc(C5=NCCN5)ccc4[nH]3)nc2cc1C1=NCCN1	20.1	24.8	9.9	6	3.3
c1cc2[nH]c(Cc3nc4cc(C5=NCCN5)ccc4[nH]3)nc2cc1C1=NCCN1	10.7	13.5	6.9	3	4.1
N=C(N)c1ccc2[nH]c(-c3cccc(-c4nc5cc(C(=N)N)ccc5[nH]4)c3)nc2c1	23.9	34.6	12.8	4	5.6
c1c[nH]c(-c2ccc(-c3cc4ccc(-c5ncc[nH]5)cc4[nH]3)cc2)n1	42.7	45.3	22.4	5	9.4
CC(C)NC(=N)c1ccc2[nH]c(CCc3nc4cc(C(=N)NC(C)C)ccc4[nH]3)nc2c1	32.9	37.3	19.2	10	3.3
N=C(N)c1ccc2[nH]c(CCCCCCCCc3nc4cc(C(=N)N)ccc4[nH]3)nc2c1	21.2	22.8	10.2	7	3.2
N=C(N)c1ccc2c(ccn2CCCCn2ccc3cc(C(=N)N)ccc32)c1	16.3	18.2	12.1	2.2	7.3
N=C(N)c1ccc2[nH]c(Cc3nc4ccccc4[nH]3)nc2c1	1	1.3	1.4		0.2
